# Test system: LNCaP cells
# Assay: Cell viability assay (MTS), LNCaP cell line
# Format: cell-based
# Conditions: Homo sapiens, 48 hours
# Protocol: LNCaP cell line was used for the cell viability assay. LNCaP cells were plated in 96-well plates at a density of 5000 cells per well. After 24 hours of plating, the cells were treated with increasing doses of compound (e.g., compounds 1-38) ranging from 1 μM to 80 μM. Relative cell numbers were analyzed after 48 hours using 3-(4,5-dimethylthiazol-2-yl)-5-(3-carboxymethoxyphenyl)-2-(4-sulfophenyl)-2H-tetrazolium (MTS) assay (Promega) according to the manufacturer's instructions.
# (§1) The cell viability data was analyzed with GraphPad Prism software. The values were log transformed and analyzed with non-linear regression (curve-fit) using log (inhibitor) vs. response—variable slope (four parameters) and constraining the bottom to equal zero. Unless otherwise indicated, the GI50 values provided in Table 1 correspond to the LNCaP cell viability assays.
row,Structure (SMILES),GI50 [µM]
1,"O=S(=O)(N[C@@H](c1ccc(Cl)cc1)C1CCNCC1)c1ccc(OC(F)(F)F)cc1 [Example 13, (R)-N-((4-chlorophenyl)(piperidin-4-yl)methyl)-4-(trifluoromethoxy)benzenesulfonamide]",10
2,"O=S(=O)(NC(CN1CCNCC1)c1ccc(F)c(F)c1)c1ccc(OC(F)(F)F)cc1 (stereo not shown) [Example 21, N-(1-(3,4-difluorophenyl)-2-(piperazin-1-yl)ethyl)-4-(trifluoromethoxy)benzenesulfonamide]",33.8
3,"O=S(=O)(NC(c1ccccc1)C1CCNCC1)c1ccc(OC(F)(F)F)cc1 (stereo not shown) [Example 10, N-(phenyl(piperidin-4-yl)methyl)-4-(trifluoromethoxy)benzenesulfonamide]",20.5
4,"Cc1cc(C2(NS(=O)(=O)c3ccc(OC(F)(F)F)cc3)CCNCC2)ccc1Cl [Example 4, N-(4-(4-chloro-3-methylphenyl)piperidin-4-yl)-4-(trifluoromethoxy)benzenesulfonamide]",6.76
5,"O=S(=O)(NC1(c2ccc(Cl)nc2)CCNCC1)c1ccc(OC(F)(F)F)cc1 [Example 3, N-(4-(6-chloropyridin-3-yl)piperidin-4-yl)-4-(trifluoromethoxy)benzenesulfonamide]",69.9
6,"O=S(=O)(NC(CN1CCNCC1)c1ccc(F)cc1F)c1ccc(OC(F)(F)F)cc1 (stereo not shown) [Example 20, N-(1-(2,4-difluorophenyl)-2-(piperazin-1-yl)ethyl)-4-(trifluoromethoxy)benzenesulfonamide]",27.1
7,"O=S(=O)(NC1(c2cc(F)cc(F)c2)CCNCC1)c1ccc(OC(F)(F)F)cc1 [Example 2, N-(4-(3,5-difluorophenyl)piperidin-4-yl)-4-(trifluoromethoxy)benzenesulfonamide]",15.5
8,"Nc1cc(S(=O)(=O)NC(CN2CCNCC2)c2ccc(Cl)cc2)ccc1OC(F)(F)F (stereo not shown) [Example 23, 3-amino-N-(1-(4-chlorophenyl)-2-(piperazin-1-yl)ethyl)-4-(trifluoromethoxy)benzenesulfonamide]",30.8
9,"O=S(=O)(NC1(c2ccccc2)CCC2(CC2)NC1)c1ccc(OC(F)(F)F)cc1 (stereo not shown) [Example 6, N-(6-phenyl-4-azaspiro[2.5]octan-6-yl)-4-(trifluoromethoxy)benzenesulfonamide]",57.5
10,"O=S(=O)(NC1(c2ccc(F)c(F)c2)CCNC1)c1ccc(OC(F)(F)F)cc1 (stereo not shown) [Example 1, N-(3-(3,4-difluorophenyl)pyrrolidin-3-yl)-4-(trifluoromethoxy)benzenesulfonamide]",25.7
11,"CC(C)Oc1ccc(S(=O)(=O)N[C@H](c2ccc(Cl)cc2)C2CCNCC2)cn1 [Example 17, (S)-N-((4-chlorophenyl)(piperidin-4-yl)methyl)-6-isopropoxypyridine-3-sulfonamide]",26.4
12,"O=S(=O)(N[C@@H](c1ccccc1)C1CCNCC1)c1ccc(OC(F)(F)F)cc1 [Example 11, (R)-N-(phenyl(piperidin-4-yl)methyl)-4-(trifluoromethoxy)benzenesulfonamide]",24.7
13,"O=S(=O)(N[C@H](c1ccc(Cl)cc1)C1CCNCC1)c1ccc(OC(F)(F)F)cc1 [Example 14, (S)-N-((4-chlorophenyl)(piperidin-4-yl)methyl)-4-(trifluoromethoxy)benzenesulfonamide]",11.3
14,"O=S(=O)(N[C@H](c1ccccc1)C1CCNCC1)c1ccc(OC(F)(F)F)cc1 [Example 12, (S)-N-(phenyl(piperidin-4-yl)methyl)-4-(trifluoromethoxy)benzenesulfonamide]",27.1
15,"CC(C)Oc1ccc(S(=O)(=O)NC(CN2CCNCC2)c2ccc(Cl)cc2)cn1 (stereo not shown) [Example 22, N-(1-(4-chlorophenyl)-2-(piperazin-1-yl)ethyl)-6-isopropoxypyridine-3-sulfonamide]",51.1
16,"O=S(=O)(NC1(c2cc(Cl)ncc2Cl)CCNCC1)c1ccc(OC(F)(F)F)cc1 [Example 9, N-(4-(2,5-dichloropyridin-4-yl)piperidin-4-yl)-4-(trifluoromethoxy)benzenesulfonamide]",28.8
17,"CNc1cc(S(=O)(=O)NC2(c3ccc(Cl)cc3)CCNCC2)ccc1OC(F)(F)F [Example 8, N-(4-(4-chlorophenyl)piperidin-4-yl)-3-(methylamino)-4-(trifluoromethoxy)benzenesulfonamide]",25.2
18,"CC(C)Oc1ccc(S(=O)(=O)NC2(c3ccc(F)c(F)c3)CCNCC2)cn1 [Example 7, N-(4-(3,4-difluorophenyl)piperidin-4-yl)-6-isopropoxypyridine-3-sulfonamide]",36.8
19,"CC(C)Oc1ccc(S(=O)(=O)N[C@@H](c2ccc(Cl)cc2)C2CCNCC2)cn1 [Example 16, (R)-N-((4-chlorophenyl)(piperidin-4-yl)methyl)-6-isopropoxypyridine-3-sulfonamide]",23.4

# Further lines, results first:
row,GI50 [µM],Structure (SMILES)
1,23.3,"O=C(NC1(c2ccc(Cl)cc2)CCNC1)c1ccc(OC(F)(F)F)cc1 (stereo not shown) [Example 33, N-(3-(4-chlorophenyl)pyrrolidin-3-yl)-4-(trifluoromethoxy)benzamide]"
2,78.7,"CC(C)Oc1ccc(S(=O)(=O)NCC2(c3ccccc3)CC2(C)C)cn1 (stereo not shown) [Example 29, N-((2,2-dimethyl-1-phenylcyclopropyl)methyl)-6-isopropoxypyridine-3-sulfonamide]"
3,54.6,"CN(C)CC(c1ccc(Cl)c(Cl)c1)n1cc(-c2ccc(OC(F)(F)F)cc2)cn1 (stereo not shown) [Example 34, 2-(3,4-dichlorophenyl)-N,N-dimethyl-2-(4-(4-(trifluoromethoxy)phenyl)-1H-pyrazol-1-yl)ethan-1-amine]"
4,24.4,"O=S(=O)(N[C@H](CN1CC(N2CCC2)C1)c1ccc(F)cc1)c1ccc(OC(F)(F)F)cc1 [Example 27, (S)-N-(2-([1,3′-biazetidin]-1′-yl)-1-(4-fluorophenyl)ethyl)-4-(trifluoromethoxy)benzenesulfonamide]"
5,22.8,"CC(C)Oc1ccc(S(=O)(=O)NC(c2cc(Cl)cc(Cl)c2)C2CCCCC2)cn1 (stereo not shown) [Example 30, N-(cyclohexyl(3,5-dichlorophenyl)methyl)-6-isopropoxypyridine-3-sulfonamide]"
6,47.5,"O=S(=O)(N[C@H](CN1CCC[C@H](F)C1)c1ccc(F)cc1)c1ccc(OC(F)(F)F)cc1 [Example 26, N-((S)-1-(4-fluorophenyl)-2-((S)-3-fluoropiperidin-1-yl)ethyl)-4-(trifluoromethoxy)benzenesulfonamide]"
7,14.4,"CN(C)CC(NS(=O)(=O)c1ccc(Oc2cccc(C(F)(F)F)c2)cc1)c1ccc(Cl)c(Cl)c1 (stereo not shown) [Example 28, N-(1-(3,4-dichlorophenyl)-2-(dimethylamino)ethyl)-4-(3-(trifluoromethyl)phenoxy)benzenesulfonamide]"
8,25.2,"FC(F)(F)Oc1ccc(-c2cn(C3(c4ccc(Cl)cc4)CCNC3)cn2)cc1 (stereo not shown) [Example 36, 1-(3-(4-chlorophenyl)pyrrolidin-3-yl)-4-(4-(trifluoromethoxy)phenyl)-1H-imidazole]"
9,20.4,"CN(C)CC(c1ccc(Cl)c(Cl)c1)n1cnc(-c2ccc(OC(F)(F)F)cc2)c1 (stereo not shown) [Example 35, 2-(3,4-dichlorophenyl)-N,N-dimethyl-2-(4-(4-(trifluoromethoxy)phenyl)-1H-imidazol-1-yl)ethan-1-amine]"
10,41.9,"CN(C)CC(NC(=O)c1ccc(OC(F)(F)F)cc1)c1ccc(Cl)c(Cl)c1 (stereo not shown) [Example 31, N-(1-(3,4-dichlorophenyl)-2-(dimethylamino)ethyl)-4-(trifluoromethoxy)benzamide]"
11,23,"O=S(=O)(Nc1ccc(OC(F)(F)F)cc1)C1(c2ccccc2)CCNCC1 [Example 38, 4-phenyl-N-(4-(trifluoromethoxy)phenyl)piperidine-4-sulfonamide]"
12,2.1,"CN(C)CC(NC(=O)c1ccc(OC(F)(F)F)c([N+](=O)[O-])c1)c1ccc(Cl)c(Cl)c1 (stereo not shown) [Example 32, N-(1-(3,4-dichlorophenyl)-2-(dimethylamino)ethyl)-3-nitro-4-(trifluoromethoxy)benzamide]"
13,30.5,"FC(F)(F)Oc1ccc(-c2cnn(C3(c4ccccc4)CCNC3)c2)cc1 (stereo not shown) [Example 37, 1-(3-phenylpyrrolidin-3-yl)-4-(4-(trifluoromethoxy)phenyl)-1H-pyrazole]"

# Test system: HCC1937 cells
# Assay: Cell viability assay (MTS), HCC1937 cell line
# Format: cell-based
# Conditions: Homo sapiens, HCC1937 cell line (footnote a), 48 hours
# Protocol: HCC1937 cells are plated in a 96 well plate format at a density of 10,000 cells per well. After incubation overnight, cells are treated with a compound (e.g., compound 5) at the following concentrations: 80, 40, 20, 10, 5, 2.5, 1.25 μM. Compound concentrations are prepared in RPMI via serial dilutions from a starting stock of 80 mM. Forty-eight (48) hours after compound treatment, cell viability is assessed using the Promega CellTiter 96 aqueous one proliferation assay (Promega G3582, MTS assay) according to manufacturer's protocol.
# as §1
row,GI50 [µM],Structure (SMILES)
1,51.4,"CC(C)Oc1ccc(S(=O)(=O)NC2(c3ccc(Cl)cn3)CCNCC2)cn1 [Example 5, N-(4-(5-chloropyridin-2-yl)piperidin-4-yl)-6-isopropoxypyridine-3-sulfonamide]"
2,48.7,"O=S(=O)(N[C@H](c1ccc(Cl)cn1)C1CCNCC1)c1ccc(OC(F)(F)F)cc1 [Example 15, (S)-N-((5-chloropyridin-2-yl)(piperidin-4-yl)methyl)-4-(trifluoromethoxy)benzenesulfonamide]"
3,27,"CC(C)Oc1ccc(S(=O)(=O)NC(CN2CCNCC2)c2ccc(F)c(F)c2)cn1 (stereo not shown) [Example 24, N-(1-(3,4-difluorophenyl)-2-(piperazin-1-yl)ethyl)-6-isopropoxypyridine-3-sulfonamide]"
4,74.5,"CC(C)Oc1ccc(S(=O)(=O)N[C@H](c2ccccc2)C2CCNCC2)cn1 [Example 19, (S)-6-isopropoxy-N-(phenyl(piperidin-4-yl)methyl)pyridine-3-sulfonamide]"
5,40.6,"O=S(=O)(N[C@@H](CN1CCNCC1)c1ccc(Cl)cc1)c1ccccc1 [Example 25, (R)-N-(1-(4-chlorophenyl)-2-(piperazin-1-yl)ethyl)benzenesulfonamide]"
